Measured values from patent US20110152092A1, “Herbicidal compositions comprising flufenacet” (Bayer CropScience AG, priority 2009, published 2011).

Columns and labels:
APESV = experiment: Greenhouse trial, PO application, post-emergence action against weeds (test method 2); format: in vivo, Apera Spica-venti; details: g of AS/ha: (A) 120, (B) 1200, (C) 120, mixture 120 + 1200 + 120
Procedure: (§1) In the standard design of the test, seeds of various broad-leaved weed and weed grass biotypes (origins) were sown in a 8-13 cm diameter pot filled with natural soil of a standard field soil (loamy silt; non-sterile) and covered with a covering soil layer of about 1 cm. The pots were then cultivated in a greenhouse (12-16 h of light, temperature day 20-22° C., night 15-18° C.) until the time of application. The pots were treated on a laboratory track sprayer with spray liquors comprising the compositions according to the invention, mixtures of the prior art or components used individually. Application of the active compounds or active compound combinations formulated as WG, WP, EC or otherwise was carried out at the appropriate growth stages of the plants. The application rate for the spray application was 100-600 l of water/ha. After the treatment, the plants were returned to the greenhouses.
(§2) About 3 weeks after the application, the soil action or/and foliar action was assessed visually according to a scale of 0-100% in comparison to an untreated comparative group: 0%=no noticeable effect compared to the untreated comparative group; 100%=full effect compared to the untreated comparative group. […]

STEME = experiment: as above; format: in vivo, Stellaria media; details: g of AS/ha: (A) 120, (B) 1200, (C) 120, mixture 120 + 1200 + 120
Procedure: as §1, §2

LOLPE [1] = experiment: as above; format: in vivo, Lolium perenne; details: g of AS/ha: (A) 120, (B) 1200, (C) 120, mixture 120 + 1200 + 120
Procedure: as §1, §2

HORVS [2] = experiment: Greenhouse trial, PO application, selective post-emergence action on crop (test method 4); format: in vivo, Hordeum vulgare, summer barley; details: g of AS/ha: (A) 120, (B) 1200, (C) 120, mixture 120 + 1200 + 120
Procedure: as §1, §2

LOLPE [3] = experiment: Greenhouse trial, PE application, pre-emergence action against weeds (test method 1); format: in vivo, Lolium perenne; details: g of AS/ha: (A) 90, (B) 1200, (C) 90, mixture 90 + 1200
Procedure: as §1, §2

AVEFA [4] = experiment: as above; format: in vivo, Avena fatua; details: g of AS/ha: (A) 90, (B) 1200, (C) 90, mixture 90 + 1200
Procedure: as §1, §2

HORVS [5] = experiment: Greenhouse trial, PE application, selective pre-emergence action on crop (test method 3); format: in vivo, Hordeum vulgare, summer barley; details: g of AS/ha: (A) 90, (B) 1200, (C) 90, mixture 90 + 1200
Procedure: as §1, §2

LOLPE [6] = experiment: Greenhouse trial, pre-sowing application 7 days prior to sowing (test method 5); format: in vivo, Lolium perenne; details: g of AS/ha: (A) 90, (B) 1200, (C) 90, mixture 90 + 1200
Procedure: as §1, §2

AVEFA [7] = experiment: as above; format: in vivo, Avena fatua; details: g of AS/ha: (A) 90, (B) 1200, (C) 90, mixture 90 + 1200
Procedure: as §1, §2

HORVS [8] = experiment: as above; format: in vivo, Hordeum vulgare, summer barley; details: g of AS/ha: (A) 90, (B) 1200, (C) 90, mixture 90 + 1200
Procedure: as §1, §2

AVEFA [9] = experiment: Greenhouse trial, PE application with different irrigation variations (test method 6); format: in vivo, Avena fatua; details: g of AS/ha: (A) 120, (B) 1200, (C) 90, mixture 120 + 1200 + 90
Procedure: as §1, §2

MATCH = experiment: as above; format: in vivo, Matricaria chamomilla; details: g of AS/ha: (A) 120, (B) 1200, (C) 90, mixture 120 + 1200 + 90
Procedure: as §1
(§3) About 3 weeks after the application, the soil action or/and foliar action was assessed visually according to a scale of 0-100% in comparison to an untreated comparative group: 0%=no noticeable effect compared to the untreated comparative group; 100%=full effect compared to the untreated comparative group.
(notes: the term “seeds” also includes vegetative propagation forms such as, for example, rhizome pieces; abbreviations used: h light=hours of illumination, g of AS/ha=gram of active substance per hectare, l/ha=liter per hectare, S=sensitive, R=resistant) • 1. Pre-emergence action against weeds: seeds of various broad-leaved weed and weed grass biotypes (origins) were sown in a 8-13 cm diameter pot filled with natural soil of a standard field soil (loamy silt; non-sterile) and covered with a covering soil layer of about 1 cm. The pots were then cultivated in a greenhouse (12-16 h of light, temperature day 20-22° C., night 15-18° C.) until the time of application. […]

TRZAS = experiment: as above; format: in vivo, Triticum aestivum, summer wheat; details: g of AS/ha: (A) 120, (B) 1200, (C) 90, mixture 120 + 1200 + 90
Procedure: as §1, §3
(notes: the term “seeds” also includes vegetative propagation forms such as, for example, rhizome pieces; abbreviations used: h light=hours of illumination, g of AS/ha=gram of active substance per hectare, l/ha=liter per hectare, S=sensitive, R=resistant) • 1. Pre-emergence action against weeds: seeds of various broad-leaved weed and weed grass biotypes (origins) were sown in a 8-13 cm diameter pot filled with natural soil of a standard field soil (loamy silt; non-sterile) and covered with a covering soil layer of about 1 cm. The pots were then cultivated in a greenhouse (12-16 h of light, temperature day 20-22° C., night 15-18° C.) until the time of application. The pots were treated at the BBCH stage 00-10 of the seeds/plants on a laboratory track sprayer with spray liquors comprising the compositions according to the invention, mixtures or components used individually, as WG, WP, EC or other formulations. The application rate for the spray application was 100-600 l of water/ha. After the treatment, the plants were returned to the greenhouses and, when required, treated with fertilizer and watered. • 2. Post-emergence action against weeds: seeds of various broad-leaved weed and weed grass biotypes (origins) were sown in a 8-13 cm diameter pot filled with natural soil of a standard field soil (loamy silt; non-sterile) and covered with a covering soil layer of about 1 cm. The pots were then cultivated in a greenhouse (12-16 h of light, temperature day 20-22° C., night 15-18° C.) until the time of application. […]

Compound: CCC(CC)Nc1c([N+](=O)[O-])cc(C)c(C)c1[N+](=O)[O-] [(B) pendimethalin, N-(1-ethylpropyl)-3,4-dimethyl-2,6-dinitrobenzenamine]
- activity APESV (visual, scale 0-100%) (APESV): 0%
- activity STEME (visual, scale 0-100%) (STEME): 30%
- activity LOLPE (visual, scale 0-100%) (LOLPE [1]): 0%
- activity on crop plant HORVS (visual, scale 0-100%) (HORVS [2]): 10%
- activity LOLPE (visual, scale 0-100%) (LOLPE [3]): 10%
- activity AVEFA (visual, scale 0-100%) (AVEFA [4]): 40%
- activity on crop plant HORVS (visual, scale 0-100%) (HORVS [5]): 50%
- activity LOLPE (visual, scale 0-100%) (LOLPE [6]): 80%
- activity AVEFA (visual, scale 0-100%) (AVEFA [7]): 70%
- activity on crop plant HORVS (visual, scale 0-100%) (HORVS [8]): 30%
- activity AVEFA (visual, scale 0-100%) (AVEFA [9]; irrigation from above): 80%
- activity AVEFA (visual, scale 0-100%) (AVEFA [9]; irrigation from below): 40%
- activity MATCH (visual, scale 0-100%) (MATCH; irrigation from above): 30%
- activity MATCH (visual, scale 0-100%) (MATCH; irrigation from below): 18%
- activity on crop plant TRZAS (visual, scale 0-100%) (TRZAS; irrigation from above): 50%
- activity on crop plant TRZAS (visual, scale 0-100%) (TRZAS; irrigation from below): 0%
